From patent US12077610B2, “Peptides and other agents for treating pain and increasing pain sensitivity” (The Research Foundation for The State University of New York, priority 2017, dated 2024)
Non-standard residues stand in square brackets, D forms with d. No end group written: not given here. *: point of attachment. pT = C[C@@H](OP(=O)(O)O)[C@H](N)C(=O)O; Myristoyl = CCCCCCCCCCCCCC(=O)*

Assays:
[1] = tested on: NaV1.8; assay: Surface biotinylation / Western blot of NaV1.8 in cultured DRG neurons; assay type: cell-based, rat; settings: 10 μM peptide, 24 hrs
Experimental: (§1) Western Blot Analysis—Total proteins were collected from transfected CHO cells, spinal cord and DRG. Tissue was homogenized in RIPA buffer supplemented in protease inhibitor cocktail (Sigma). Immunoblotting was performed as previously described. Briefly, proteins were separated on 4-15% Mini-PROTEAN TGX Precast Gel (Bio-Rad) and transferred to a 0.45 μm nitrocellulose membrane (BioRad). Membranes were probed overnight at 4° C. with antibodies against Slack anti-mouse (1:500; NeuroMab), rabbit anti-β-Actin (1:500; Millipore), rabbit anti-Magi-1 (1:100; Abcam), mouse anti-Magi-1 (1:100; Novus Biochemical), mouse anti-NaV1.8 (1:200; NeuroMab), mouse anti-NaV1.7 (1:200; NeuroMab), mouse anti-Flag (1:500; Sigma) in 5% milk prepared in 1×Tris-buffered saline tween (TBST). On the following day, the membrane was washed three times for five minutes in 1×TBST before being incubated for 1 hour at room temperature in Anti-mouse or Anti-rabbit horseradish peroxidase conjugate (1:5000; Promega) and 0.1% BSA prepared in 1×PBS. The membrane was again washed 3 times for 5 minutes before being developed and imaged. Bands were visualized with enhanced chemiluminescence (Thermo Scientific) and quantified with Image J Software (NIH). Each experiment was repeated at least three times.
Surface Protein Biotinylation—Plasma membrane protein expression was detected using a protein biotinylation assay. Briefly, CHO cells or DRG neurons in six-well plates were used at 48 h after transient transfection of plasmid constructs or Magi-1 targeting siRNA respectively. For peptide incubation, neurons were incubated for 24 hrs. 160 μl of 10 mM Sulfo-NHS-SS-Biotin (Thermo Scientific) was added to each well and incubated at room temperature for 45 mins. The biotinylation reaction was terminated using 10 mM glycine (Quenching solution). Cells were harvested, washed in TBS and lysed on ice for 30 minutes in a lysis buffer/protease inhibitor cocktail. Lysates were collected and incubated with 500 uL of NeutrAvidin Agarose for 60 mins at room temperature with rotation. Following incubation, the column underwent centrifugation to collect the unbiotinylated protein. To elute the biotinylated proteins, sodium dodecyl sulfate (SDS) and dithiothreitol (DDT) were added to column membrane and incubated with rotation for 1 hour at room temperature. Biotinylated and unbiotinylated samples were probed for Slack or NaV1.8 and Actin protein by Western blot, as described above.

[2] = Formalin test of acute inflammatory pain; assay type: in vivo, mice; settings: single i.pl. injection 100 μM, 20 μl, 24 hrs before 5% formalin; vs scrambled peptide
Excerpt: In vivo transfection with jetPEI®/Magi-1 shRNA plasmid DNA polyplexes—The spinal nerve injection protocol was adopted from and optimized for spinal nerve injection in mice. Three days after baseline thermal behavior was established, mice were anesthetized using isoflurane (induction: 4% and maintenance: 2%), and placed in a prone position. A 3-cm posterior longitudinal skin incision was made at the lumbar segment of the spine. The ipsilateral paraspinal muscles were carefully separated, using a pair of sterile toothpicks, from their attachments at the L4˜S1 levels of the vertebral column. 1.5 μl of PEI/shRNA plasmid DNA polyplexes at an N/P ratio of 6 were injected directly in the spinal nerve of the right hind paw slowly using a syringe connected to a 26-gauge needle (Hamilton 80030, Hamilton, Reno, NV). Magi-1 shRNAs and control shRNA were purchased from Santa Cruz Biotechnology (Santa Cruz, CA, USA) and were identical to the siRNA sequences described above. After injection, the needle was held at the spinal nerve for 1 min to prevent leakage. […]
Formalin test—Mice were habituated in the behavior room for 15 minutes, then 30 minutes in the formalin chamber before formalin injection. […] The total time spent lifting, the total number of licks, and the number of flinches were recorded in 5 minute intervals for 60 minutes. […]

[3] = tested on: NaV1.7; assay: Surface biotinylation of NaV1.7 in cultured DRG neurons; assay type: cell-based, rat; settings: peptide treatment 24 hrs
Experimental: as §1
(§2) Surface Protein Biotinylation—Plasma membrane protein expression was detected using a protein biotinylation assay. […]

[4] = tested on: INa in DRG neurons; assay: Whole-cell voltage-clamp recording of inward sodium current (INa); assay type: cell-based, rat; settings: for INa (total / peak): 10 μM peptide, 24 hrs
Experimental: Primary DRG neuronal cultures—Timed-pregnant Sprague-Dawley rats (Harlan, Indianapolis, Ind.) were used for culturing neurons. On the day of the dissection, rats were euthanized by CO2 asphyxiation and E15 embryos were extracted. DRG neurons were dissected from the embryos and enzymatically digested with Trypsin (2.5 mg/ml) at 37° C. for 45 min, followed by dissociation and plating. DRG neurons were plated onto poly-D-lysine (Sigma; 100 μg/ml) and laminin (Invitrogen; 3 μg/ml) coated coverslips. Neurons were maintained at 37° C. in a 7% CO2 humidified incubator in serum-free medium, comprised of the trophic factors N2 (Gemini Bio products; 1%), I-Glutamine (Invitrogen; 200 sg/ml), and Nerve Growth Factor (NGF) (Harlan; 100 ng/ml; essential for embryonic neuronal survival) in 50% DMEM and 50% F-12. The reliance of embryonic DRG neurons on NGF selects for the small-diameter population that is thought to underlie nociception and thermoception. Two successive days after DRG dissection, DRG neurons were cultured in C2 media containing the anti-mitotic agent cytosine β-d-arabinofuranoside hydrochloride (Sigma; 3 μM). This was followed by two days of recovery were neurons received regular serum free media before neurons were used for experiments. […]
Electrophysiology—All data was acquired using the Axopatch 200B amplifier (Molecular Devices,) and Multiclamp-700B (Molecular Devices, Sunnyvale, Calif.), digitized and filtered at 5 kHz. Data acquisition was monitored and controlled using pClamp 10 (Molecular Devices). […] In voltage-clamp mode, macroscopic currents were recorded at voltages ranging from −120 to +120. […] The cell capacitance for CHO cells ranged from 10-15 pF and for cultured DRG neurons 20-25 pF recorded under these conditions. […] Firing frequency of individual neurons was assessed by measurement of repetitive discharge upon injecting of a supra-threshold stimulus of 400 pA for 1000 ms. […] For TTX-resistant INa, DRG neurons were recorded in a bath solution containing 250 nM TTX. DRG neurons were recorded at voltages ranging from −60 to +60 mV. […]

[5] = tested on: DRG neurons; assay: Current-clamp action potential firing in cultured DRG neurons; assay type: cell-based, rat
Experimental: Primary DRG neuronal cultures—Timed-pregnant Sprague-Dawley rats (Harlan, Indianapolis, Ind.) were used for culturing neurons. On the day of the dissection, rats were euthanized by CO2 asphyxiation and E15 embryos were extracted. DRG neurons were dissected from the embryos and enzymatically digested with Trypsin (2.5 mg/ml) at 37° C. for 45 min, followed by dissociation and plating. DRG neurons were plated onto poly-D-lysine (Sigma; 100 μg/ml) and laminin (Invitrogen; 3 μg/ml) coated coverslips. Neurons were maintained at 37° C. in a 7% CO2 humidified incubator in serum-free medium, comprised of the trophic factors N2 (Gemini Bio products; 1%), I-Glutamine (Invitrogen; 200 sg/ml), and Nerve Growth Factor (NGF) (Harlan; 100 ng/ml; essential for embryonic neuronal survival) in 50% DMEM and 50% F-12. The reliance of embryonic DRG neurons on NGF selects for the small-diameter population that is thought to underlie nociception and thermoception. Two successive days after DRG dissection, DRG neurons were cultured in C2 media containing the anti-mitotic agent cytosine β-d-arabinofuranoside hydrochloride (Sigma; 3 μM). This was followed by two days of recovery were neurons received regular serum free media before neurons were used for experiments. All subsequent experiments using embryonic cultures were performed on days 5-10 of neuronal culture.
Electrophysiology—All data was acquired using the Axopatch 200B amplifier (Molecular Devices,) and Multiclamp-700B (Molecular Devices, Sunnyvale, Calif.), digitized and filtered at 5 kHz. Data acquisition was monitored and controlled using pClamp 10 (Molecular Devices). Whole-cell patch-clamp recordings were performed on cultured DRG neurons, and CHO cells transiently transfected with WT or mutated Slack with Magi-1. Glass electrodes were pulled using a vertical pipette puller (Narishige International USA, Amityville, NY) and fire polished to be of 5-8 MΩ resistance. Pipettes were filled with solution containing (in mM) 124 K-gluconate, 2 MgCl2, 13.2 NaCl, 1 EGTA, 10 HEPES, 4 Mg-ATP, and 0.3 Na-GTP at pH 7.2 for neuronal recordings, and with 32.5 mM KCl, 97.5 mM potassium gluconate, 5 mM EGTA and 10 mM HEPES (pH 7.2) for CHO cell Slack and Slick recordings. […] In voltage-clamp mode, macroscopic currents were recorded at voltages ranging from −120 to +120. […] The cell capacitance for CHO cells ranged from 10-15 pF and for cultured DRG neurons 20-25 pF recorded under these conditions. […] Firing frequency of individual neurons was assessed by measurement of repetitive discharge upon injecting of a supra-threshold stimulus of 400 pA for 1000 ms. […] For TTX-resistant INa, DRG neurons were recorded in a bath solution containing 250 nM TTX. DRG neurons were recorded at voltages ranging from −60 to +60 mV. […]

[6] = tested on: Slack KNa channel; assay: Surface biotinylation of Slack channel in cultured DRG neurons; assay type: cell-based, rat; settings: 24 hrs after PDZ peptide incubation, vs scrambled peptide B
Experimental: as §1, §2

| Substance | NaV1.8 channels at the plasma membrane (surface expression) [1] | total NaV1.8 protein [1] | Phase II acute inflammatory pain (formalin) [2] | surface (biotinylated) NaV1.7 membrane expression [3] | INa (total / peak) [4] | neurons with repetitive AP firing ([5]; 10 μM peptide, 24 hrs, suprathreshold stimulation 400 pA, 1000 ms) | Slack surface expression [6] | neurons exhibiting repetitive firing ([5]; PDZ peptide treated, suprathreshold stimulation 400 pA, 1000 ms) | decrease in INa density ([4]; PY peptide incubation, 6 hours) [%] | neurons with AP firing almost completely abolished ([5]; 10 μM peptide, 24 hrs) | neurons firing one action potential followed by firing accommodation ([5]; suprathreshold stimulation 400 pA, 1000 ms) |
| --- | --- | --- | --- | --- | --- | --- | --- | --- | --- | --- | --- |
| myristoyl-SATSFPPSYDSV[pT]RG (Myristoyl-SATSFPPSYDSV[pT]RG) [phospho-PY peptide] | significant increase | a statistically significant increase in input levels of NaV1.8 protein over 24 hours was not observed | increase | unaltered | strongly increased | 7 of 12 | – | – | – | – | – |
| NPETRDETQL [PDZ peptide] | – | – | – | – | – | – | decreased | 11/21 | – | – | – |
| myristoyl-SATSFPPSYDSVTRG (Myristoyl-SATSFPPSYDSVTRG) [PY peptide] | substantial decrease | substantial decrease | significantly reduced | unaltered | almost complete loss | – | – | – | 50 | 10 of 11 | – |
| myristoyl-QPNTRLDETE (Myristoyl-QPNTRLDETE) [Scrambled peptide B, reference compound] | – | – | – | – | – | – | – | – | – | – | 23/23 |
